# Data published in US20090264384A1, “INDOLE, BENZIMIDAZOLE, AND BENZOLACTAM BORONIC ACID COMPOUNDS, ANALOGS THEREOF AND METHODS OF USE THEREOF” (Nuada, Inc., priority 2004, published 2009).
# Experiments:
# [1] = test system: chronic colitis provoked by trinitrobenzene sulphonic acid (TNBS); assay: Rat model of chronic colitis provoked by TNBS over 14 days, treatment from Day 1; type: in vivo; conditions: for macroscopic Damage Score / reduction in colon weight / reduction in colonic MPO activity / reduction in colonic TNF-α levels / reduction in colonic lesion area (% of the total area measured): Day 14; for reduction in colon weight / reduction in colonic MPO activity / reduction in colonic TNF-α levels / reduction in colonic lesion area (% of the total area measured) / attenuation of TNBS-induced fall in body weight (% change of body weight at Day −1): vs CMC group; for attenuation of TNBS-induced fall in body weight (% change of body weight at Day −1): over 14 days
# Text: In the chronic model of colitis, assessment of the colonic inflammation is made 14 days or longer, after the intracolonic challenge with TNBS (Boughton-Smith et al, 1988a, 1988b; Wallace et al, 1989; Rachmilewitz et al, 1989; Wallace and Keenan, 1990; Ameho et al, 1987; Sans et al, 1999; Sun et al, 2001; Maric et al, 2003; Moreels et al, 2004; Gonzalez et al, 2004). This model allows treatment with experimental agents to commence following the establishment of the colonic injury, typically 24 hours after the TNBS challenge (Galvez et al, 2000, Villegas, 2003, Gonzalez et al, 2004). The model should therefore identify the ability of the experimental compounds to accelerate the diminution of the inflammatory response and to promote healing of the colonic lesions. This model thus has relevance additional to the acute model, as the clinical correlate is the therapeutic intervention in patients with existing IBD not in remission or with flare-up, to reduce the crisis. This contrasts with the acute TNBS model where the compounds are administered one or two days prior to challenge, the clinical correlate being the use of prophylactic therapy to prevent flare-up and maintain remission in IBD patients.
# In this current study, the low intracolonic challenge concentration of TNBS used in the acute studies was also used for the chronic study over a 14 day period. This concentration and timing was based on the findings from pilot studies where a range of concentrations of TNBS and treatment conditions were evaluated over a 14 day period. […].
# The methods and protocol used were substantially similar to those in Example 39-40, with some differences described below.
# TNBS Challenge. Male Wistar rats (average body weight, 210 g) were randomised into groups before commencement of the study. In all groups, including the non-challenged and non-treated absolute control group, food was withdrawn for 12 h before TNBS administration (i.e. overnight on Day −1), but the rats were allowed free access to drinking water.
# On the morning of the day of challenge (Day 0, between 9.00 and 1 1.00 a.m.), the rats were transiently anaesthetised with ether and the TNBS solution (10 mg in 0.25 ml of 50% ethanol) was instilled approximately 6-8 cm into the colon using a soft plastic catheter inserted in the rat rectum. The rats were allowed to recover with free access to food and drinking water. At the end of the experiment, on the morning of Day 14, between 9.00 and 11.00), the colon was dissected, and the distal 8 cm photographed and immediately processed or stored appropriately for subsequent analyses.
# The following primary parameters were measured in the study: macroscopic scoring of distal 8 cm of colon; myeloperoxidase levels in segments of distal 8 cm of colon; TNF-α levels in segments of distal 8 cm of colon.
# In addition, the weight of the standard colonic segment was assessed as an indirect and non-specific marker of oedema. The body weight of the animals was also determined each evening of the study, starting on Day-1, and also on the morning of Day 14. The data is shown graphically as the % change from the weight on Day-1, prior to challenge.
# Treatments. The TNBS challenged groups for study were: (a) Vehicle control 0.5% carboxy methyl cellulose (CMC) p.o., twice daily from Day; (b) CCI-7506 25 mg/kg, p.o., twice daily from Day 1 (50 mg/kg/day total); (c) CCI-7506 50 mg/kg, p.o., twice daily from Day 1 (100 mg/kg/day total); (d) CCI-7507 12.5 mg/kg, p.o., twice daily from Day 1 (25 mg/kg/day total); (e) CCI-7507 25 mg/kg, p.o., twice daily from Day 1(50 mg/kg/day total); […]; (g) Infliximab 3 mg/kg, single slow i.v. injection, on Day 1 and Day7.
# The experimental compounds that were administered orally were given twice a day from Day 1, i.e. 24 h following TNBS administration, for the remainder of the 14 day experimental period. Infliximab was administered by slow i.v. injection of Day 1 and on Day 7. […]
# [2] = test system: colitis provoked by trinitrobenzene sulphonic acid (TNBS); assay: Rat model of colitis provoked by TNBS, 3 days, treatment from Day −1 (CCI-7308); type: in vivo; conditions: for attenuation of TNBS-induced fall in body weight (% change in body weight at Day 0) / reduction in area of macroscopic colonic injury / reduction in colonic MPO activity / reduction in colon weight / reduction in colonic TNF-α levels: vs CMC group; for reduction in area of macroscopic colonic injury: 72 h after TNBS
# Text: In the study, colonic macroscopic injury has been assessed, as has colonic weight as a reflection of colonic oedema, along with determination of MPO activity (Bradley et al, 1982) as an index of white cell infiltration for the evaluation of tissue injury. The methods and protocol used were substantially similar to those in Example 39, with some differences described below. TNBS Challenge—Male Wistar rats (270-330 g) were randomised into groups of 10-11 before commencement of the study. The following primary parameters were measured in the study: In addition, the weight of the colonic segment was assessed as an indirect and non-specific marker of oedema. The body weight of the animals was also determined and expressed as % change from the day of challenge. Treatments. All challenged groups were dosed orally twice daily from Day −1. The groups for study were: Colon homogenates for cytokine measurements. […] Tissue homogenates were lysed for 30 min. on ice, and then centrifuged (10 min., 14, 000×g). The aliquots of the supernatant were stored at −20° C. until use (Ten Hove et al., 2001). Tumour Necrosis Factor-a Activity. The TNF-α levels were determined with quantitative TNF-α solid-phase Enzyme Linked ImmunoSorbent Assay (ELISA), which is based on the sandwich principle (HyCult biotechnology b. V;. Cat number: […] At the end of the ELISA assay, the samples were measured spectrophotometrically (Benchmark Microplate reader, Bio-Rad Lab; λ=450 nm). The samples were diluted 2 or 4 times with the sample buffer included in the kit. The TNF-α values were expressed as pg/mg protein. This commercially available kit (Hycult Biotechnology b.v. Uden, The Netherlands. Catalogue number: […]
# [3] = Various In Vitro Cell Biology Assays (Example 41, Tables 23-26); type: cell-based; conditions: PBMC, 24 h, IL-1 □ secretion (h) (PBMC), LPS 1 μg/ml, 24 h; 3×10^−6 M; read-out: % Inhibition of Control Values
# Method: In each experiment, the respective reference compound was tested concurrently with the test compounds in order to assess the assay suitability. It was tested at several concentrations (for IC50 value determination).
# The test compounds were assayed at 3×10^−6 M.
# Results. The results are expressed as a percent of control values and as a percent inhibition of control values obtained in the presence of the test compounds.
# The IC50 values (concentration causing a half-maximal inhibition of control values) and Hill coefficients (nH) were determined by non-linear regression analysis of the inhibition curves using Hill equation curve fitting, a summary of the data is shown in Table 26. The IC50 value for each reference compound is indicated was determined (data not shown) and was within accepted limits of the historic average ±0.5 log units.
# [4] = 50 mg/kg/day p.o. in divided doses from Day 1
# [5] = 4 mg/kg/day p.o. in divided doses
# [6] = 20 mg/kg/day p.o. in divided doses
# [7] = 100 mg/kg/day p.o. in divided doses
smiles,measurement,setting,value
N#Cc1ccc2c(ccn2CCCCCB(O)O)c1 [CCI-7506],macroscopic Damage Score,[1]; 50 mg/kg/day p.o. from Day 1,reduced the damage score
same,reduction in colon weight,[1]; 50 mg/kg/day p.o. from Day 1,caused a significant reduction in the colon weight
same,reduction in colonic MPO activity,[1]; 50 mg/kg/day p.o. from Day 1,caused a significant fall in the elevated MPO activity
same,reduction in colonic TNF-α levels,[1]; 50 mg/kg/day p.o. from Day 1,no significant effect on the colonic TNF-α levels
same,reduction in colonic lesion area (% of the total area measured),[1]; 50 mg/kg/day p.o. from Day 1,statistically significant for both doses
same,attenuation of TNBS-induced fall in body weight (% change of body weight at Day −1),[1]; [4],significantly different from those in the challenged CMC control group on Days 2 to 10 and also on Days 13 and 14
same,macroscopic Damage Score,[1]; 100 mg/kg/day p.o. from Day 1,reduced the damage score
same,reduction in colon weight,[1]; 100 mg/kg/day p.o. from Day 1,caused a significant reduction in the colon weight
same,reduction in colonic MPO activity,[1]; 100 mg/kg/day p.o. from Day 1,caused a significant fall in the elevated MPO activity
same,reduction in colonic TNF-α levels,[1]; 100 mg/kg/day p.o. from Day 1,did achieve significance
same,reduction in colonic lesion area (% of the total area measured),[1]; 100 mg/kg/day p.o. from Day 1,statistically significant for both doses
same,attenuation of TNBS-induced fall in body weight (% change of body weight at Day −1),[1]; 100 mg/kg/day p.o. in divided doses from Day 1,"significantly different from the CMC group on Days 2, 3 and 4"
COc1ccc(-c2nc3ccccc3n2CCCCCB(O)O)cc1 [CCI-7507],macroscopic Damage Score,[1]; 25 mg/kg/day p.o. from Day 1,reduced the damage score
same,reduction in colon weight,[1]; 25 mg/kg/day p.o. from Day 1,significantly reduced the colonic weight of the standard segment at both doses
same,reduction in colonic MPO activity,[1]; 25 mg/kg/day p.o. from Day 1,significant and dose-dependent fall in the elevated MPO activity at both dose levels
same,reduction in colonic TNF-α levels,[1]; 25 mg/kg/day p.o. from Day 1,caused a significant reduction in the elevated levels of TNF-α
same,reduction in colonic lesion area (% of the total area measured),[1]; 25 mg/kg/day p.o. from Day 1,statistically significant for both doses
same,attenuation of TNBS-induced fall in body weight (% change of body weight at Day −1),[1]; 25 mg/kg/day p.o. in divided doses from Day 1,"significantly different from that in the CMC challenged group (P<0.05) on Days 2, 3, 4, 8, 9 and 10 post-challenge"
same,macroscopic Damage Score,[1]; 50 mg/kg/day p.o. from Day 1,reduced the damage score
same,reduction in colon weight,[1]; 50 mg/kg/day p.o. from Day 1,significantly reduced the colonic weight of the standard segment at both doses
same,reduction in colonic MPO activity,[1]; 50 mg/kg/day p.o. from Day 1,significant and dose-dependent fall in the elevated MPO activity at both dose levels
same,reduction in colonic TNF-α levels,[1]; 50 mg/kg/day p.o. from Day 1,caused a significant reduction in the elevated levels of TNF-α
same,reduction in colonic lesion area (% of the total area measured),[1]; 50 mg/kg/day p.o. from Day 1,statistically significant for both doses
same,attenuation of TNBS-induced fall in body weight (% change of body weight at Day −1),[1]; [4],significantly different form the CMC group on all days from Day 2 to 10
COc1ccc(-c2nc3ccccc3n2CCCCCB(O)O)cc1 [CCI-7308],attenuation of TNBS-induced fall in body weight (% change in body weight at Day 0),[2]; 4 mg/kg/day p.o. in divided doses b.i.d.,significantly different from the challenged CMC control group on Day 1
same,reduction in area of macroscopic colonic injury,[2]; [5],did not reach significance
same,reduction in colonic MPO activity,[2]; [5],significant (P<0.001) reduction in colonic MPO levels at all three dose levels
same,attenuation of TNBS-induced fall in body weight (% change in body weight at Day 0),[2]; 20 mg/kg/day p.o. in divided doses b.i.d.,"significantly different from the CMC group on Days 1, 2 and 3"
same,reduction in area of macroscopic colonic injury,[2]; [6],statistically significant
same,reduction in colon weight,[2]; [6],statistically significant
same,reduction in colonic MPO activity,[2]; [6],significant (P<0.001) reduction in colonic MPO levels at all three dose levels
same,reduction in colonic TNF-α levels,[2]; [6],achieving significance
same,attenuation of TNBS-induced fall in body weight (% change in body weight at Day 0),[2]; 100 mg/kg/day p.o. in divided doses b.i.d.,preventing the fall in body weight on all 3 days post-challenge
same,reduction in area of macroscopic colonic injury,[2]; [7],statistically significant
same,reduction in colon weight,[2]; [7],statistically significant
same,reduction in colonic MPO activity,[2]; [7],significant (P<0.001) reduction in colonic MPO levels at all three dose levels
same,reduction in colonic TNF-α levels,[2]; [7],achieving significance
same,relative potency versus sulfasalazine in reducing macroscopic injury,"[2]; preliminary indication, from comparison of molecular weights",~2.5 times
same,inhibition at 3 µM,[3],68%
